Experimental data reported in PMC4014698 (Pharmaceuticals, 2014).
Converted amounts (≈) assume the structure as drawn. Non-standard residues stand in square brackets, D forms with d. Residues, ends and D or L forms follow the SMILES beside them.

What was measured:
[1] = tested on: Acinetobacter baumannii (11 different isolates); format: cell-based; conditions: geometric mean of the MIC values from 11 different isolates of A. baumannii; Table 3A
From the text: (§1) All the A. baumannii strains used in this study were (1) obtained from the collection of Dr. Anthony A. Campagnari at the University of Buffalo and originally isolated from different patients and organs/tissues (strain 649, blood; strain 689, groin; strain 759, gluteus; strain 821, urine; strain 884, axilla; strain 899, perineum; strain 964, throat; strain 985, pleural fluid and strain 1012, sputum); (2) were purchased from the American Type Culture Collection (ATCC, Manassas, VA, USA) (strain ATCC 17978, fatal meningitis; and strain ATCC 19606, urine).
(§2) The minimal inhibitory concentration (MIC) is defined as the lowest peptide concentration that inhibited bacterial growth. MICs were measured by a standard microtiter dilution method in Mueller Hinton (MH) medium. Briefly, cells were grown overnight at 37 °C in MH broth and were diluted in the same medium. Serial dilutions of the peptides were added to the microtiter plates in a volume of 50 µL, followed by the addition of 50 µL of bacteria to give a final inoculum of 5 × 10^5 colony-forming units (CFU)/mL. The plates were incubated at 37 °C for 24 h, and the MICs were determined.
Antibacterial activities against six strains of P. aeruginosa and eleven strains of A. baumannii are compared in Table 3. Geometric mean of MIC values was calculated to provide an overall view of antimicrobial activity of different analogs. It is clear that our peptides were effective in killing the microorganisms tested. Compared to a dramatic reduction in hemolytic activity, antibacterial activity of D-piscidin 1 and D-dermaseptin S4 analogs against eleven strains of A. baumannii maintained the same level (within 2-fold) upon the substitution of “specificity determinant(s)” (Table 3).

human erythrocytes = experiment: Hemolytic activity (HC50); format: cell-based; conditions: for Hemolytic activity HC50: concentration giving 50% hemolysis after 18 h at 37 °C, 1% human erythrocytes in PBS pH 7.4, hemoglobin release at 570 nm, 100% control water (Figure 7)
Description: Hemoglobin release was determined spectrophotometrically at 570 nm.
From these plots, the HC50 values, the peptide concentration that produces 50% hemolysis of human red blood cells after 18 hours in the standard microtiter dilution method was determined.

P. aeruginosa strain WR5 = conditions: source burn patient; Mueller-Hinton medium, 37 °C, 24 h, 5 × 10^5 CFU/mL; three sets of determinations
From the text: (§3) P. aeruginosa strains used are as follows: strain PAO1 was isolated from a human wound in 1955 in Australia; strain WR5 was isolated from a burn patient at Walter Reed Army Hospital, Washington, DC, USA, in 1976 and is a natural toxA^− mutant, but is virulent in experimental mouse models; strain PAK was originally isolated at Memorial University, St. John’s, Newfoundland, Canada, and is widely used in the analysis of pili; strain PA14 was originally isolated as a clinical isolate in 1995 at the Massachusetts General Hospital, Boston, MA, USA and is virulent in a variety of plant and animal models of infection; strain M2 was originally isolated in 1975 from the gastrointestinal tract of a healthy CF1 mouse, University of Cincinnati College of Medicine, and Shriners Burns Institute, Cincinnati, OH, USA and is virulent in a burn mouse model of P. aeruginosa infection; and strain CP204 was isolated from a cystic fibrosis patient in 1989 at the National Jewish Medical and Research Center, Denver, CO, USA. All strains have been maintained at −80 °C in the laboratory of Michael Vasil, University of Colorado, School of Medicine.
(§4) The minimal inhibitory concentration (MIC) is defined as the lowest peptide concentration that inhibited bacterial growth. MICs were measured by a standard microtiter dilution method in Mueller Hinton (MH) medium. Briefly, cells were grown overnight at 37 °C in MH broth and were diluted in the same medium. […] The plates were incubated at 37 °C for 24 h, and the MICs were determined.

[2] = tested on: P. aeruginosa strain PA14; conditions: Mueller-Hinton medium, 37 °C, 24 h, 5 × 10^5 CFU/mL; three sets of determinations
From the text: as §3, §4

P. aeruginosa strain M2 = conditions: source burn mouse model; Mueller-Hinton medium, 37 °C, 24 h, 5 × 10^5 CFU/mL; three sets of determinations
From the text: as §3, §4

[3] = tested on: P. aeruginosa strain CP204; conditions: source cystic fibrosis patient; Mueller-Hinton medium, 37 °C, 24 h, 5 × 10^5 CFU/mL; three sets of determinations
From the text: as §3, §4

P. aeruginosa strain PAK = conditions: Mueller-Hinton medium, 37 °C, 24 h, 5 × 10^5 CFU/mL; three sets of determinations
From the text: as §3, §4

[4] = tested on: P. aeruginosa strain PAO1; conditions: source human wound; Mueller-Hinton medium, 37 °C, 24 h, 5 × 10^5 CFU/mL; three sets of determinations
From the text: as §3, §4

A. baumannii strain 884 = experiment: MIC, microtiter dilution; format: cell-based, Acinetobacter baumannii; conditions: source axilla; Mueller-Hinton medium, 37 °C, 24 h, 5 × 10^5 CFU/mL; three sets of determinations
From the text: as §1, §2

A. baumannii strain 649 = experiment: MIC, microtiter dilution; format: cell-based, Acinetobacter baumannii; conditions: source blood; Mueller-Hinton medium, 37 °C, 24 h, 5 × 10^5 CFU/mL; three sets of determinations
From the text: as §1, §2

A. baumannii strain 759 = experiment: MIC, microtiter dilution; format: cell-based, Acinetobacter baumannii; conditions: source gluteus; Mueller-Hinton medium, 37 °C, 24 h, 5 × 10^5 CFU/mL; three sets of determinations
From the text: as §1, §2

A. baumannii strain 821 = experiment: MIC, microtiter dilution; format: cell-based, Acinetobacter baumannii; conditions: source urine; Mueller-Hinton medium, 37 °C, 24 h, 5 × 10^5 CFU/mL; three sets of determinations
From the text: as §1, §2

[5] = tested on: A. baumannii strain ATCC 19606; experiment: MIC, microtiter dilution; format: cell-based, Acinetobacter baumannii; conditions: source urine; Mueller-Hinton medium, 37 °C, 24 h, 5 × 10^5 CFU/mL; three sets of determinations
From the text: as §1, §2

[6] = tested on: A. baumannii strain ATCC 17978; format: cell-based, Acinetobacter baumannii; conditions: ATCC 17978, 24 h
From the text: as §1, §2

A. baumannii strain 899 = format: cell-based, Acinetobacter baumannii; conditions: source perineum; Mueller-Hinton medium, 37 °C, 24 h, 5 × 10^5 CFU/mL; three sets of determinations
From the text: as §1, §2

A. baumannii strain 985 = format: cell-based, Acinetobacter baumannii; conditions: source pleural fluid; Mueller-Hinton medium, 37 °C, 24 h, 5 × 10^5 CFU/mL; three sets of determinations
From the text: as §1, §2

A. baumannii strain 689 = format: cell-based, Acinetobacter baumannii; conditions: source groin; Mueller-Hinton medium, 37 °C, 24 h, 5 × 10^5 CFU/mL; three sets of determinations
From the text: as §1, §2

A. baumannii strain 964 = format: cell-based, Acinetobacter baumannii; conditions: source throat; Mueller-Hinton medium, 37 °C, 24 h, 5 × 10^5 CFU/mL; three sets of determinations
From the text: as §1, §2

A. baumannii strain 1012 = format: cell-based, Acinetobacter baumannii; conditions: source sputum; Mueller-Hinton medium, 37 °C, 24 h, 5 × 10^5 CFU/mL; three sets of determinations
From the text: as §1, §2

[7] = tested on: Pseudomonas aeruginosa (6 different isolates); conditions: geometric mean of the MIC values from 6 different isolates of P. aeruginosa; Table 3B
From the text: as §3, §4
Geometric mean of MIC values was calculated to provide an overall view of antimicrobial activity of different analogs.

Row | Compound | MIC GM [1] [µM] | Hemolytic activity HC50 (human erythrocytes) [µM] | MIC WR5 (P. aeruginosa strain WR5) [µM] | MIC PA14 [2] [µM] | MIC M2 (P. aeruginosa strain M2) [µM] | MIC CP204 [3] [µM] | MIC PAK (P. aeruginosa strain PAK) [µM] | MIC PAO1 [4] [µM] | MIC 884 (A. baumannii strain 884) [µM] | MIC 649 (A. baumannii strain 649) [µM] | MIC 759 (A. baumannii strain 759) [µM] | MIC 821 (A. baumannii strain 821) [µM] | MIC ATCC19606 [5] [µM] | MIC ATCC17978 [6] [µM] | MIC 899 (A. baumannii strain 899) [µM] | MIC 985 (A. baumannii strain 985) [µM] | MIC 689 (A. baumannii strain 689) [µM] | MIC 964 (A. baumannii strain 964) [µM] | MIC 1012 (A. baumannii strain 1012) [µM] | MIC GM [7] [µM] | further results
1 | CSCC[C@@H](NC(=O)[C@@H](Cc1c[nH]c2ccccc12)NC(=O)[C@@H](CC(C)C)NC(=O)[C@@H](C)N)C(=O)N[C@@H](C(=O)N[C@H](CC(C)C)C(=O)N[C@H](CCCCN)C(=O)N[C@H](CCCCN)C(=O)N[C@H](CCCCN)C(=O)N[C@@H](C(=O)N[C@H](CC(C)C)C(=O)N[C@H](CCCCN)C(=O)N[C@H](C)C(=O)N[C@H](CCCCN)C(=O)N[C@H](C)C(=O)N[C@H](CCCCN)C(=O)N[C@H](C)C(=O)N[C@H](CC(C)C)C(=O)N[C@H](CC(N)=O)C(=O)N[C@H](C)C(=O)N[C@@H](C(=O)N[C@H](CC(C)C)C(=O)N[C@@H](C(=O)NCC(=O)N[C@H](C)C(=O)N[C@H](CC(N)=O)C(=O)N[C@H](C)C(N)=O)C(C)C)C(C)C)C(C)C)[C@H](C)O [D-Dermaseptin S4 L7K,A14K] (H-[dA][dL][dW][dM][dT][dL][dK][dK][dK][dV][dL][dK][dA][dK][dA][dK][dA][dL][dN][dA][dV][dL][dV]G[dA][dN][dA]-NH2) | 1.1 (≈ 3.14 µg/mL) | 241 | 11.0 (≈ 31.4 µg/mL) | 5.5 (≈ 15.7 µg/mL) | 21.9 (≈ 62.4 µg/mL) | 1.4 (≈ 3.99 µg/mL) | 1.4 (≈ 3.99 µg/mL) | 5.5 (≈ 15.7 µg/mL) | 1.4 (≈ 3.99 µg/mL) | 0.7 (≈ 2 µg/mL) | 1.4 (≈ 3.99 µg/mL) | 0.7 (≈ 2 µg/mL) | 0.7 (≈ 2 µg/mL) | 0.7 (≈ 2 µg/mL) | 1.4 (≈ 3.99 µg/mL) | 0.7 (≈ 2 µg/mL) | 0.7 (≈ 2 µg/mL) | 2.7 (≈ 7.7 µg/mL) | 2.7 (≈ 7.7 µg/mL) | 4.9 (≈ 14 µg/mL) | 
2 | CSCC[C@@H](NC(=O)[C@@H](Cc1c[nH]c2ccccc12)NC(=O)[C@@H](CC(C)C)NC(=O)[C@@H](C)N)C(=O)N[C@@H](C(=O)N[C@H](CC(C)C)C(=O)N[C@H](CC(C)C)C(=O)N[C@H](CCCCN)C(=O)N[C@H](CCCCN)C(=O)N[C@@H](C(=O)N[C@H](CC(C)C)C(=O)N[C@H](CCCCN)C(=O)N[C@H](C)C(=O)N[C@H](C)C(=O)N[C@H](C)C(=O)N[C@H](CCCCN)C(=O)N[C@H](C)C(=O)N[C@H](CC(C)C)C(=O)N[C@H](CC(N)=O)C(=O)N[C@H](C)C(=O)N[C@@H](C(=O)N[C@H](CC(C)C)C(=O)N[C@@H](C(=O)NCC(=O)N[C@H](C)C(=O)N[C@H](CC(N)=O)C(=O)N[C@H](C)C(N)=O)C(C)C)C(C)C)C(C)C)[C@H](C)O [D-Dermaseptin S4] (H-[dA][dL][dW][dM][dT][dL][dL][dK][dK][dV][dL][dK][dA][dA][dA][dK][dA][dL][dN][dA][dV][dL][dV]G[dA][dN][dA]-NH2) | 1.8 (≈ 5 µg/mL) | 0.6 | 11.3 (≈ 31.4 µg/mL) | 22.5 (≈ 62.5 µg/mL) | 11.3 (≈ 31.4 µg/mL) | 11.3 (≈ 31.4 µg/mL) | 11.3 (≈ 31.4 µg/mL) | 11.3 (≈ 31.4 µg/mL) | 2.8 (≈ 7.78 µg/mL) | 1.4 (≈ 3.89 µg/mL) | 1.4 (≈ 3.89 µg/mL) | 2.8 (≈ 7.78 µg/mL) | 2.8 (≈ 7.78 µg/mL) | 2.8 (≈ 7.78 µg/mL) | 1.4 (≈ 3.89 µg/mL) | 0.7 (≈ 1.94 µg/mL) | 1.4 (≈ 3.89 µg/mL) | 1.4 (≈ 3.89 µg/mL) | 2.8 (≈ 7.78 µg/mL) | 12.6 (≈ 35 µg/mL) | Hemolytic activity Fold improvement in HC50 (human erythrocytes): 1.0 fold
3 | CC[C@@H](C)[C@@H](NC(=O)CNC(=O)[C@@H](CCCNC(=N)N)NC(=O)[C@@H](Cc1ccccc1)NC(=O)[C@H](NC(=O)[C@@H](Cc1c[nH]cn1)NC(=O)[C@@H](Cc1c[nH]cn1)NC(=O)[C@@H](Cc1ccccc1)NC(=O)[C@H](N)Cc1ccccc1)[C@H](C)CC)C(=O)N[C@@H](C(=O)N[C@H](Cc1c[nH]cn1)C(=O)N[C@@H](C(=O)N[C@H](CCCCN)C(=O)N[C@H](CCCCN)C(=O)N[C@@H](C(=O)N[C@@H](C(=O)N[C@H](Cc1c[nH]cn1)C(=O)N[C@H](CCCNC(=N)N)C(=O)N[C@H](CC(C)C)C(=O)N[C@@H](C(=O)N[C@@H](C(=O)NCC(N)=O)[C@H](C)O)C(C)C)[C@H](C)CC)[C@H](C)O)C(C)C)C(C)C [D-Piscidin 1 G13K] (H-[dF][dF][dH][dH][dI][dF][dR]G[dI][dV][dH][dV][dK][dK][dT][dI][dH][dR][dL][dV][dT]G-NH2) | 5.2 (≈ 13.7 µg/mL) | 7.0 | 23.7 (≈ 62.6 µg/mL) | 23.7 (≈ 62.6 µg/mL) | 11.8 (≈ 31.2 µg/mL) | 47.3 (≈ 125 µg/mL) | 11.8 (≈ 31.2 µg/mL) | 23.7 (≈ 62.6 µg/mL) | 5.9 (≈ 15.6 µg/mL) | 3.0 (≈ 7.93 µg/mL) | 5.9 (≈ 15.6 µg/mL) | 5.9 (≈ 15.6 µg/mL) | 5.9 (≈ 15.6 µg/mL) | 5.9 (≈ 15.6 µg/mL) | 5.9 (≈ 15.6 µg/mL) | 3.0 (≈ 7.93 µg/mL) | 5.9 (≈ 15.6 µg/mL) | 5.9 (≈ 15.6 µg/mL) | 5.9 (≈ 15.6 µg/mL) | 21.1 (≈ 55.8 µg/mL) | 
